Reference: patent US8288439B2, “Methods and compositions for the inhibition of HIV-1 replication” (The United States of America, as represented by the …, priority 2003, dated 2012)
“Also recorded” adds a separate entry of the source. Where two headings read alike, the source gives them in different places.

How the values were obtained:
p21 (CDKN1A) [1] = assay: p21 (CDKN1A) gene expression in HIV-1 infected macrophages (ribonuclease protection assay); assay type: cell-based, human; conditions: for human p21 expression: murine-derived antisense sequences tested in human macrophages
Source text: Total cellular RNA is extracted from adherent control or infected monocytes with the RNeasy minikit (Qiagen, Valencia, Calif.) and analyzed by northern blot (Wahl, S. M. et al. (1998) “MYCOBACTERIUM AVIUM COMPLEX AUGMENTS MACROPHAGE HIV-1 PRODUCTION AND INCREASES CCR5 EXPRESSION. Proc Natl Acad Sci USA 95:12574-12579) using an HIV-full length probe (NIH AIDS Research and Reference Reagent Program) and GAPDH (glyceraldehyde-3-phosphate dehydrogenase) (Gibco BRL, Gaithersburg, Md.). For the RPA 3 μg of RNA is evaluated using the hStress tRiboquant Multi-Probe RPA system (BD Pharmingen, San Diego, Calif.) and densities are normalized to the GAPDH gene using ImageQuant (Molecular Dynamics, Sunnyvale, Calif.)

p21 (CDKN1A) [2] = assay: p21 protein levels in macrophages; assay type: cell-based, human; conditions: concomitant with reducing HIV infection
Description: Uninfected and HIV-1 infected macrophages that have been cultured for twelve days are washed twice with PBS, fixed with 2% paraformaldehyde in PBS, washed and incubated in 100 mM glycine in PBS for 20 min, followed by 0.5% Triton-X-100 for 10 min and rinsed with PBS. Cells are then labeled with rabbit anti-p21 antibody at 5 μg/ml (Santa Cruz Biotechnology, Santa Cruz, Calif.) in PBS containing 5% donkey serum (Jackson ImmunoResearch Laboratories, Inc., West Grove, Pa.) for 1 hr, washed extensively, then incubated with Texas-Red conjugated secondary antibody at 3 μg/ml at room temperature (Molecular Probes, Eugene, Oreg.). Non-specific background is determined using an irrelevant rabbit isotype control antibody and secondary antibody alone at the same concentrations above. Images are captured using a Leica TCS-4D confocal microscope system with a Kr—Ar laser on a DMR upright microscope using a 40×, 1.0 numerical aperture objective. Fluorescence intensity analysis is performed using confocal microscopy and Metamorph analysis (Universal Imaging, Downington, Pa.). […]

HIV-1 [3] = conditions: for viral replication / HIV-1 growth as determined by p24 levels: oligonucleotide 50 nM, after HIV-1 infection and at refeeding, day 12, vs HIV control without oligo
Description: Monocytes are plated in 6 well plates (Corning Costar Corporation, Cambridge, Mass.), at 6×10^6 cells/well or in Lab-Tek chamber slides (Naperville, Ill.) at 1.5×10^6/chamber in Dulbecco's modified Eagle's medium (DMEM) with 2 mM L-glutamine and 10 μg/ml gentamicin (BioWhittaker) or in other suitable vessels. After adherence (4-6 hr at 37° C. and 5% CO2), 10% human AB-serum (Sigma, St. Louis, Mo.) is added to the culture medium. Cells are cultured 5-10 days to allow differentiation into macrophages before being infected with HIV-1BaL TCID50=1000-5000 (Advanced Biotechnologies Inc., Columbia, Md.) or other M tropic (R5) virus for 90 minutes at 37° C. The levels of endotoxin are below the limit of detection in virus preparations. Unbound virus is removed by washing the cells with media and refeeding with complete DMEM containing 10% human serum. Control populations of adherent macrophages are mock-infected and cultured in parallel. Every 3 to 4 days, half the medium is removed for virus assay and replaced with fresh complete medium for two weeks. Supernatant p24 antigen is assayed using the p24 core profile enzyme-linked immunosorbent assay (ELISA) kit (Perkin-Elmer Life Sciences, Wilmington, Del.). […] Additionally, macrophages are treated with p21 anti-sense phosphorothioate oligonucleotides:

macrophages = assay: Macrophage cell viability / cell number, morphology and ultrastructural analysis; conditions: for cell viability (cell number, morphology, ultrastructural analysis): infected or uninfected macrophage cultures treated with oligonucleotides
Description: To determine whether the increased p21 influenced viral life cycle, the cells are treated with two distinct p21 anti-sense oligonucleotides (SEQ ID NO. 7 and SEQ ID NO. 9).

HIV-1 [4] = assay: Transmission electron microscopy (ultrastructural analysis) of HIV-1 infected macrophages; assay type: cell-based; conditions: day 12; ≧200 cells/treatment condition
Source text: Gluteraldehyde-fixed uninfected and infected cells are postfixed in OsO4, dehydrated through graded ethanol and propylene oxide, embedded in Spurr's epoxy, and thick- and thin-sectioned. Thin sections are placed on copper grids, stained with uranyl acetate and lead citrate, and viewed in a Zeiss EM10 microscope (LEO Electron Microscope; Oberkochen, Germany).

p21 = assay: Induction of p21 gene and protein expression in macrophages treated with Vpr; assay type: cell-based, human; conditions: Vpr 6 μg/ml for 3 hr
Description: Macrophages were treated with Vpr (6 μg/ml) for 3 hr and found to show increased gene transcription and protein expression for p21 when treated with Vpr (FIG. 7A and FIG. 7B).

CD4 and CCR5 = assay: Macrophage CD4 and CCR5 expression; assay type: cell-based, human
Description: Macrophages were also treated with p21 siRNA duplexes (5 nM) five days prior to HIV infection and the effect on HIV-growth was determined (% of positive HIV control, no siRNA treatment) (representative experiment, n=3) (FIG. 6B). The percent of HIV-1 infection was determined comparing the p24 levels in untreated vs oligo or siRNA treated macrophages. Cells treated with p21 and negative control siRNA (5 days) were also analyzed by flow cytometry for CD4 and CCR5 cell surface expression (FIG. 6C). Nested PCR was employed in order to detect pro-viral DNA on days 1 and 3 after HIV-1BaL infection in macrophages treated with p21 or control siRNA or negative control si RNA. Control represents uninfected cells (FIG. 6D).

Molecule: CC1(C)CC[C@]2(C(=O)O)CC[C@]3(C)[C@H](C(=O)C=C4[C@@]5(C)C=C(C#N)C(=O)C(C)(C)[C@@H]5CC[C@]43C)[C@@H]2C1 [CDDO]
- p21 transcription by ribonuclease protection assay (p21 (CDKN1A) [1]; HIV-1 infected macrophages, day 12 post-infection, mean, n=2): reduced p21 transcription
- p21 protein levels (p21 (CDKN1A) [2]): variably decrease
- release of the viral protein p24 Ag (HIV-1 [3]; added prior to, or at the time of, infection of macrophages with HIV-1, CDDO 0.1 μM): dose dependent suppression
- levels of detectable virus (HIV-1 [3]; macrophages infected with HIV-1): dramatically reduced
- viral replication as quantitated by p24 levels (HIV-1 [3]; macrophages pre-treated 45 min, then infected with HIV-1BaL, compared with DMSO control and untreated cells, day 10, n=3, P=0.01): reduced viral replication
- cell viability or cell number (macrophages; HIV-1 infected macrophages treated with CDDO or di-CDDO): Without reducing cell viability or cell number
- detectable virions (TEM) (HIV-1 [4]): absence or near absence of detectable virions
- numbers of infected cells (ultrastructural analysis, TEM) (HIV-1 [4]): dramatically reduced numbers of infected cells

Molecule: 5′-TGGATCCGACATGTCAGA-3′ [SEQ ID NO. 14]
- viral replication / HIV-1 growth as determined by p24 levels (HIV-1 [3]): not
- viral replication / HIV-1 growth as determined by p24 levels (HIV-1 [3]; listed as SEQ ID NO. 13): did not suppress

Molecule: Vpr: HIV-1 Vpr gene product, added to macrophages at 6 μg/ml
- p21 gene transcription (p21): increased
- p21 protein expression (p21): increased

Molecule: 5′-ACATCACCAGGATTGGACAT-3′ (all phosphorothioate, sugars by position and methylation of C not given here; listed as Mus musculus) [SEQ ID NO. 9]
- human p21 expression (p21 (CDKN1A) [1]): effective in inhibiting
- viral replication / HIV-1 growth as determined by p24 levels (HIV-1 [3]): reduce viral replication; also recorded: inhibit HIV-1 growth
- cell viability (cell number, morphology, ultrastructural analysis) (macrophages): no negative effect
- effect on macrophage CD4 and CCR5 (CD4 and CCR5): no direct effect

Molecule: 5′-TGTCAGGCTGGTCTGCCTCC-3′ (all phosphorothioate, sugars by position and methylation of C not given here; listed as Mus musculus) [SEQ ID NO. 7]
- human p21 expression (p21 (CDKN1A) [1]): effective in inhibiting
- viral replication / HIV-1 growth as determined by p24 levels (HIV-1 [3]): reduce viral replication; also recorded: inhibit HIV-1 growth
- cell viability (cell number, morphology, ultrastructural analysis) (macrophages): no negative effect
- effect on macrophage CD4 and CCR5 (CD4 and CCR5): no direct effect
